# How the values were obtained:
# Type in all cases: biochemical
# Conditions in all cases: ATP, MgCl2, 200 mM Tris-HCl, optimal pH about 7.0, optimal temperature 50 °C
# Sm4CL2 [1] = biological target: T1, Sm4CL2 (Selaginella moellendorffii, UniProt D8S6A2); assay: UV absorption at […] nm, CoA ester formation
# T1 construct: gene 4CL2-1; 75-79 kDa with tags (tags kept)
# Sm4CL2 [2] = biological target: T1, Sm4CL2; assay: UV absorption at […] nm, CoA ester formation; remark: listed apart in the source
# Sm4CL2 [3] = biological target: T1, Sm4CL2; assay: HPLC quantification of CoA ester after […] min
# Sm4CL2 [4] = biological target: T1, Sm4CL2; assay: UV absorption at […] nm, CoA ester formation; remark: listed apart in the source
# T1 sequence (D8S6A2 entry or part of it): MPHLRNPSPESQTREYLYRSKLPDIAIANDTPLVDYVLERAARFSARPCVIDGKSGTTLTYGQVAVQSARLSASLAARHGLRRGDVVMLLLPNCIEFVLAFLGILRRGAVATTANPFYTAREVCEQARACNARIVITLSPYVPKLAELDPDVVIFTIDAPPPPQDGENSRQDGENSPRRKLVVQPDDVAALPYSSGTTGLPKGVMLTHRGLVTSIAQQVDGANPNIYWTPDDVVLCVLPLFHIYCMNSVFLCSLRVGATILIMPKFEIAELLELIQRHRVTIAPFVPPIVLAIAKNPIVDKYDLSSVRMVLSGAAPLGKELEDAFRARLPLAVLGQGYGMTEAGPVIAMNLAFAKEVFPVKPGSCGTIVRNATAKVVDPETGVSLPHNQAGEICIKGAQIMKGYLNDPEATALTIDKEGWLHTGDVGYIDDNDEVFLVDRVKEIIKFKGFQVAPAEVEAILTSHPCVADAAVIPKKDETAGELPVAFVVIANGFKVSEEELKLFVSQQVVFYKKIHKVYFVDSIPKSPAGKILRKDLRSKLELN
structure (smiles),measurement,setting,value
COc1cc(/C=C/C(=O)O)ccc1O [ferulic acid],Km,Sm4CL2 [1],96 ± 13.4 µM
O=C(O)/C=C/c1ccc(O)cc1 [p-coumaric acid],Km,Sm4CL2 [2],19.7 ± 2.92 µM
O=C(O)/C=C/c1ccc(O)c(O)c1 [caffeic acid],Km,Sm4CL2 [1],19 ± 2.61 µM
O=C(O)CCc1ccc(O)cc1 [dihydro-p-coumaric acid],Km,Sm4CL2 [3],220 ± 36.9 µM
O=C(O)/C=C/c1ccccc1 [cinnamic acid],Km,Sm4CL2 [4],127 ± 11.6 µM

# Reference: article PMC6017068, “Cloning and Functional Characterization of Two 4-Coumarate: CoA Ligase Genes from Selaginella moellendorffii” (Molecules : A Journal of Synthetic Chemistry and Natural …, 2018)
